Test results from patent publication US12435044B2, “Pyridazinone herbicides and pyridazinone intermediates used to prepare a herbicide” (FMC Corporation, priority 2018, dated 2025).

What was measured:
Assay in all cases: Test C pre-/postemergence greenhouse test
Type in all cases: in vivo
Conditions in all cases: scale 0 to 100
[1] = system: crabgrass, large (Digitaria sanguinalis)
Source text: (§1) Seeds of plant species selected from blackgrass (Alopecurus myosuroides), ryegrass, Italian (Lolium multiflorum), wheat, winter (winter wheat, Triticum aestivum), galium (catchweed bedstraw, Galium aparine), corn (Zea mays), crabgrass, large (Digitaria sanguinalis), foxtail, giant (Setaria faberii), johnsongrass (Sorghum halepense), lambsquarters (Chenopodium album), morningglory (Ipomoea coccinea), nutsedge, yellow (Cyperus esculentus), pigweed (Amaranthus retroflexus), ragweed (common ragweed, Ambrosia elatior), soybean (Glycine max), barnyardgrass (Echinochloa crus-galli), oilseed rape (Brassica napus), waterhemp (common waterhemp, Amaranthus rudis), pigweed, palmer (Amaranthus palmeri), kochia (Kochia scoparia), oat, wild (Avena fatua), surinam grass (Brachiaria decumbens), windgrass (Apera spica-venti), poinsettia, wild (Euphorbia heterophylla) and velvetleaf (Abutilon theophrasti) were planted into a silt loam soil and treated preemergence with test chemicals formulated in a non-phytotoxic solvent mixture which included a surfactant.
(§2) At the same time, plants selected from these crop and weed species and also chickweed (common chickweed, Stellaria media), buckwheat, wild (Polygonum convolvulus), mustard, wild (Sinapis arvensis), field poppy (Papaver rhoeas), field violet (Viola arvensis), nightshade (eastern black nightshade, Solanum ptycanthum), speedwell (bird's-eye speedwell, Veronica persica), horseweed (Conyza canadensis), cutleaf geranium (Geranium dissectum), and Canada thistle (Cirsium arvense) were planted in pots containing Redi-Earth® planting medium (Scotts Company, 14111 Scottslawn Road, Marysville, Ohio 43041) comprising spaghnum peat moss, vermiculite, wetting agent and starter nutrients and treated with postemergence applications of test chemicals formulated in the same manner. Plants ranged in height from 2 to 18 cm (1- to 4-leaf stage) for postemergence treatments. Treated plants and controls were maintained in a greenhouse for 13 to 21 d, after which time all species were compared to controls and visually evaluated. Plant response ratings, summarized in Table C-1 (postemergence) and C-2 (preemergence), are based on a scale of 0 to 100 where 0 is no effect and 100 is complete control. A dash (-) response means no test result.

[2] = system: barnyardgrass (Echinochloa crus-galli)
Source text: as §1, §2

[3] = system: corn (Zea mays)
Source text: as §1, §2

[4] = system: wheat, winter (winter wheat, Triticum aestivum)
Source text: as §1, §2

[5] = system: nutsedge, yellow (Cyperus esculentus)
Source text: as §1, §2

[6] = system: oilseed rape (Brassica napus)
Source text: as §1, §2

[7] = system: ragweed (common ragweed, Ambrosia elatior)
Source text: as §1, §2

[8] = system: johnsongrass (Sorghum halepense)
Source text: as §1, §2

[9] = system: velvetleaf (Abutilon theophrasti)
Source text: as §1, §2

[10] = system: ryegrass, Italian (Lolium multiflorum)
Source text: as §1, §2

Cc1ccc2ccc(C)c(-c3c(O)c(Cl)nn(C)c3=O)c2c1 [Cpd. No. 20, 6-chloro-4-(2,7-dimethyl-1-naphthalenyl)-5-hydroxy-2-methyl-3(2H)-pyridazinone]
55: Plant response rating, Barnyardgrass ([2]; Postemergence, 16 g ai/ha)
80: Plant response rating, Crabgrass, Large ([1]; Postemergence, 125 g ai/ha)
5: Plant response rating, Corn ([3]; Postemergence, 31 g ai/ha) | Plant response rating, Corn ([3]; Postemergence, 62 g ai/ha) | Plant response rating, Corn ([3]; Preemergence, 62 g ai/ha) | Plant response rating, Johnsongrass ([8]; Postemergence, 16 g ai/ha)
98: Plant response rating, Nutsedge, Yellow ([5]; Postemergence, 125 g ai/ha) | Plant response rating, Nutsedge, Yellow ([5]; Preemergence, 125 g ai/ha) | Plant response rating, Ragweed ([7]; Postemergence, 125 g ai/ha) | Plant response rating, Ryegrass, Italian ([10]; Preemergence, 61 g ai/ha)
0: Plant response rating, Corn ([3]; Postemergence, 16 g ai/ha) | Plant response rating, Corn ([3]; Preemergence, 31 g ai/ha) | Plant response rating, Corn ([3]; Preemergence, 61 g ai/ha) | Plant response rating, Wheat ([4]; Postemergence, 16 g ai/ha) | Plant response rating, Wheat ([4]; Postemergence, 31 g ai/ha) | Plant response rating, Wheat ([4]; Postemergence, 62 g ai/ha) | Plant response rating, Wheat ([4]; Postemergence, 125 g ai/ha) | Plant response rating, Wheat ([4]; Preemergence, 61 g ai/ha) | Plant response rating, Oilseed Rape ([6]; Postemergence, 16 g ai/ha) | Plant response rating, Oilseed Rape ([6]; Postemergence, 31 g ai/ha) | Plant response rating, Oilseed Rape ([6]; Postemergence, 62 g ai/ha) | Plant response rating, Oilseed Rape ([6]; Postemergence, 125 g ai/ha) | Plant response rating, Oilseed Rape ([6]; Preemergence, 31 g ai/ha) | Plant response rating, Oilseed Rape ([6]; Preemergence, 61 g ai/ha) | Plant response rating, Oilseed Rape ([6]; Preemergence, 62 g ai/ha) | Plant response rating, Oilseed Rape ([6]; Preemergence, 125 g ai/ha)
75: Plant response rating, Barnyardgrass ([2]; Postemergence, 31 g ai/ha) | Plant response rating, Barnyardgrass ([2]; Postemergence, 62 g ai/ha) | Plant response rating, Velvetleaf ([9]; Postemergence, 31 g ai/ha)
100: Plant response rating, Crabgrass, Large ([1]; Preemergence, 125 g ai/ha) | Plant response rating, Barnyardgrass ([2]; Preemergence, 125 g ai/ha) | Plant response rating, Ragweed ([7]; Preemergence, 31 g ai/ha) | Plant response rating, Ragweed ([7]; Preemergence, 62 g ai/ha) | Plant response rating, Ragweed ([7]; Preemergence, 125 g ai/ha) | Plant response rating, Velvetleaf ([9]; Preemergence, 31 g ai/ha) | Plant response rating, Velvetleaf ([9]; Preemergence, 62 g ai/ha) | Plant response rating, Velvetleaf ([9]; Preemergence, 125 g ai/ha) | Plant response rating, Ryegrass, Italian ([10]; Preemergence, 31 g ai/ha) | Plant response rating, Ryegrass, Italian ([10]; Preemergence, 62 g ai/ha) | Plant response rating, Ryegrass, Italian ([10]; Preemergence, 125 g ai/ha)
65: Plant response rating, Ragweed ([7]; Preemergence, 61 g ai/ha) | Plant response rating, Johnsongrass ([8]; Preemergence, 125 g ai/ha) | Plant response rating, Ryegrass, Italian ([10]; Postemergence, 16 g ai/ha)
30: Plant response rating, Johnsongrass ([8]; Postemergence, 62 g ai/ha) | Plant response rating, Johnsongrass ([8]; Preemergence, 62 g ai/ha)
85: Plant response rating, Barnyardgrass ([2]; Postemergence, 125 g ai/ha) | Plant response rating, Barnyardgrass ([2]; Preemergence, 31 g ai/ha) | Plant response rating, Ragweed ([7]; Postemergence, 16 g ai/ha) | Plant response rating, Velvetleaf ([9]; Postemergence, 62 g ai/ha) | Plant response rating, Velvetleaf ([9]; Preemergence, 61 g ai/ha) | Plant response rating, Ryegrass, Italian ([10]; Postemergence, 31 g ai/ha)
20: Plant response rating, Corn ([3]; Postemergence, 125 g ai/ha)
70: Plant response rating, Crabgrass, Large ([1]; Postemergence, 62 g ai/ha) | Plant response rating, Barnyardgrass ([2]; Preemergence, 61 g ai/ha) | Plant response rating, Wheat ([4]; Preemergence, 125 g ai/ha) | Plant response rating, Velvetleaf ([9]; Postemergence, 16 g ai/ha)
10: Plant response rating, Johnsongrass ([8]; Postemergence, 31 g ai/ha)
35: Plant response rating, Corn ([3]; Preemergence, 125 g ai/ha) | Plant response rating, Johnsongrass ([8]; Postemergence, 125 g ai/ha) | Plant response rating, Johnsongrass ([8]; Preemergence, 61 g ai/ha)
95: Plant response rating, Crabgrass, Large ([1]; Preemergence, 62 g ai/ha) | Plant response rating, Barnyardgrass ([2]; Preemergence, 62 g ai/ha) | Plant response rating, Nutsedge, Yellow ([5]; Postemergence, 62 g ai/ha) | Plant response rating, Nutsedge, Yellow ([5]; Preemergence, 31 g ai/ha) | Plant response rating, Nutsedge, Yellow ([5]; Preemergence, 62 g ai/ha) | Plant response rating, Ragweed ([7]; Postemergence, 62 g ai/ha) | Plant response rating, Ryegrass, Italian ([10]; Postemergence, 62 g ai/ha) | Plant response rating, Ryegrass, Italian ([10]; Postemergence, 125 g ai/ha)
60: Plant response rating, Crabgrass, Large ([1]; Preemergence, 31 g ai/ha) | Plant response rating, Crabgrass, Large ([1]; Preemergence, 61 g ai/ha) | Plant response rating, Wheat ([4]; Preemergence, 31 g ai/ha) | Plant response rating, Wheat ([4]; Preemergence, 62 g ai/ha)
90: Plant response rating, Nutsedge, Yellow ([5]; Postemergence, 16 g ai/ha) | Plant response rating, Nutsedge, Yellow ([5]; Postemergence, 31 g ai/ha) | Plant response rating, Ragweed ([7]; Postemergence, 31 g ai/ha) | Plant response rating, Velvetleaf ([9]; Postemergence, 125 g ai/ha)
40: Plant response rating, Crabgrass, Large ([1]; Postemergence, 16 g ai/ha) | Plant response rating, Crabgrass, Large ([1]; Postemergence, 31 g ai/ha) | Plant response rating, Nutsedge, Yellow ([5]; Preemergence, 61 g ai/ha) | Plant response rating, Johnsongrass ([8]; Preemergence, 31 g ai/ha)
